In data set [1] the target is T1, Human CCR3 (Homo sapiens, UniProt P51677).
T1 construct: The cloned CCR3 cDNA was constructed with pcDNA3 vector and transfected into a IC562 cell line; expressed in transfected cells
T1 sequence (P51677 1-355): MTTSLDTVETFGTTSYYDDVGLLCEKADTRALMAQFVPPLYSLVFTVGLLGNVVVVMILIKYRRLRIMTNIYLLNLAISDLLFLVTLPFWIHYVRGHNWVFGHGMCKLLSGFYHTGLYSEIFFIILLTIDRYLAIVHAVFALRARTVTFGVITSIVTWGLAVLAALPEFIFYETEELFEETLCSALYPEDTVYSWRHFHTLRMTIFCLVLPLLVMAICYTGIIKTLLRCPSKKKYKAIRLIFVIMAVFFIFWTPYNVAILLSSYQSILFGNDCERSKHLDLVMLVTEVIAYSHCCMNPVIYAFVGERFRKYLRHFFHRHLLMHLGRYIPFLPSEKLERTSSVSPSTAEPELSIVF
The data set can be described thus: Calcium mobilization assay, eotaxin-stimulated. It counts as cell-based. Particulars: human CCR3-transformed K562 cells, 10 nM eotaxin; compounds of about 40 to 90% purity; read-out: Activity grade Ca2+ (IC50 class). On the procedure:
• Human CCR3-transformed K562 cells were used. The cloned CCR3 cDNA was constructed with pcDNA3 vector and transfected into a IC562 cell line. The human CCR3-transformed K562 cells were maintained in RPMI-1640 (Cat.#22400-089, Life Technologies) supplemented with 10% FCS (Cat.#A-1115-L, Hyclone), 55 μM 2-mercaptoethanol (Cat.#21985-023, Life Technologies), 1 mM sodium pyruvate (Cat.#11360-070, Life Technologies), 100 units/ml of penicillin G and 100 μg/ml of streptomycin (Cat.#15140-122, Life Technologies), and 0.4 mg/ml of Geneticin (Cat.#10131-035, Life Technologies)(hereinafter called “culture medium”). Before the receptor binding assay, cells were pretreated with 5 mM sodium butyrate (Cat.#193-01522, Wako)-containing the culture medium (2×10^5 cells/ml) for 20-24 hours to increase the expression of CCR3. (2) Receptor Binding Assay (RBA) • Butyrate-pretreated cells, suspended in binding buffer (25 mM HEPES pH 7.6, 1 mM CaCl2, 5 mM MgCl2, 0.5% BSA, 0.1% NaN3) at a cell density of 2×10^6 cells/ml, were added into 60 μl/well in the 96-well round bottom polypropylene plate (Cat.#3365, Costar). Compounds, diluted with the binding buffer (4-times higher concentration of the final concentration), were added into 30 μl/well in the polypropylene plate. [^125I]-labeled human eotaxin (Cat.#IM290, Amersham Pharmacia Biotech), diluted with the binding buffer at the concentration of 0.4 nM (final concentration; 0.1 nM), was added into 30 μl/well in the polypropylene plate. Total 120 μl/well of binding reaction mixture (60 μl/well of cell suspension, 30 μl/well of compound solution, and 30 μl/well of [^125I]-labeled eotaxin) were incubated in the polypropylene plate for 1 hour at room temperature after the incubation, 100 μl/well of the reaction mixture was transferred to a filtration plate (Cat.#MAFB-N0B, Millipore), and washed with the washing buffer (25 mM HEPES pH 7.6, 1 mM CaCl2, 5 mM MgCl2, 0.5% BSA, 0.1% NaN3, 0.5 M NaCl) twice. The 96-well filtration plate was pretreated with 100 μl/well of 0.5% polyethylenimine (Cat.#P-3143, Sigma) for 2-4 hours at room temperature and washed with the washing buffer twice before use. The non-specific binding was determined by parallel incubation in the presence of 500 nM of non-labeled eotaxin (Cat.#23209, Genzyme Techne). The radioactivities remained on the filter were measured by liquid scintillation counter (TopCount™, Packard) after an addition of 45 μl/well of scintillant (Microscint20, Cat.#6013621, Packard). The inhibition percent at each concentration of compound was calculated, and IC50 values were determined from the inhibition curve. [Determination of IC50 Values of Compounds in Calcium Mobilization Assay] (IC50 Ca2+) (1) Cell • Human CCR3-transformed K562 cells were used. The human CCR3-transformed K562 cells were maintained in RPMI-1640 supplemented with 10% FCS, 55 μM 2-mercaptoethanol (Cat.#21985-023, Life Technologies), 1 mM sodium pyruvate, 100 units/ml of penicillin G and 100 μg/ml of streptomycin and 0.4 mg/ml of Geneticin. Before the calcium mobilization assay, cells were pretreated with 5 mM sodium butyrate-containing the culture medium (2×10^5 cells/ml) for 20-24 hours to increase the expression of CCR3. (2) Calcium Mobilization Assay • Butyrate-pretreated cells were loaded with Fluo-3AM (Cat.#F-1242, Molecular Probes) in loading buffer (Hanks' solution Cat.#05906 Nissui, 20 mM HEPES pH 7.6, 0.1% BSA, 1 mM probenecid Cat.#P-8761 Sigma, 1 μM Fluo-3AM, 0.01% pluronic F-127 Cat.#P-6866 Molecular Probes) at a cell density of 1×10^7 cells/ml. Then, cells were washed with calcium assay buffer (Hanks' solution Cat.#05906 Nissui, 20 mM HEPES pH 7.6, 0.1% BSA, 1 mM Probenecid Cat.#P-8761 Sigma). The cell suspension (3.3×10^6 cells/ml) was added into 60 μl/well in the 96-well clear bottom black plate (Cat.#3904, Costar). Compounds, diluted (5-times concentration of the final concentration) with the calcium assay buffer, were added into 20 μl/well in the plate 10 minutes before assay. […]
For orientation: Calcium flux is commonly read through the fluorescence of an indicator in the cells.

The text below walks through data of US8242118B2, “Arylsulfonamide derivatives for use as CCR3 antagonists in the treatment of inflammatory and immunological disorders” (Axikin Pharmaceuticals Inc., priority 2001, dated 2012).

Where a name gives a salt, the structure may show the parent alone. Some results are limits rather than exact numbers.

By melting point is commonly meant the temperature of the solid-liquid transition. As for `Cc1cc(C)cc(Oc2cc(Br)cc(S(=O)(=O)N3CCNCC3)c2)c1` (as salt: hydrochloride) [Example 24-1, 1-{[3-bromo-5-(3,5-dimethylphenoxy)phenyl]sulfonyl}piperazine hydrochloride], the melting point is > 84 °C (dec.).
`Cc1cc(C)cc(Oc2ccncc2S(=O)(=O)N2CCNCC2)c1` (as salt: hydrochloride) [Example 25-1, 1-{[4-(3,5-dimethylphenoxy)-3-pyridinyl]sulfonyl}piperazine hydrochloride]: the melting point is 220 °C.
For `Cc1cc(C)cc(Oc2ccc([N+](=O)[O-])cc2S(=O)(=O)N2CCNCC2)c1.O=C(O)C(F)(F)F` [Example 1-3], the melting point was in the range of 120 to 125 °C.
The term IC50 denotes the concentration at which inhibition is half-maximal. Molecule `COc1ccc(S(=O)(=O)N2CCNCC2)c(Oc2cc(C)cc(C)c2)c1.Cl` [Example 1-49] returned a melting point of 125 °C. The IC50 in data set [1] was below 1000 nM.
As for `COc1cc(Oc2cc(Cl)cc(Cl)c2)c(S(=O)(=O)N2CCNCC2)cc1[N+](=O)[O-].Cl` [Example 1-50], the melting point is 181 °C. In addition, the concentration for half-maximal inhibition (IC50) in data set [1] was below 1000 nM.
The matching figures for `Cc1cc(C)cc(Oc2cc(C)ccc2S(=O)(=O)N2CCNCC2)c1.Cl` [Example 1-52]: 136 °C and below 1000 nM.
The matching figures for `Cl.Cl.O=[N+]([O-])c1ccc(Oc2cncc(Cl)c2)c(S(=O)(=O)N2CCNCC2)c1` [Example 1-55]: 231 °C and below 1000 nM.
`Cc1cc(C)cc(Oc2cccc(F)c2S(=O)(=O)N2CCNCC2)c1.Cl` [Example 1-58]: the melting point was 204 °C. In addition, in data set [1], the IC50 was below 1000 nM.
The corresponding values for `Cl.O=S(=O)(c1c(F)cccc1Oc1cc(Cl)cc(Cl)c1)N1CCNCC1` [Example 1-59] are 306 °C and below 1000 nM.
Molecule `Cl.Nc1cccc(Oc2ccc([N+](=O)[O-])cc2S(=O)(=O)N2CCNCC2)c1` [Example 1-67] registered a melting point of 248 °C. Besides, the IC50 in data set [1] is below 1000 nM.
The molecule `Cl.O=[N+]([O-])c1ccc(Oc2cccc(-c3ccccc3)c2)c(S(=O)(=O)N2CCNCC2)c1` [Example 1-68] gave a melting point of 99 °C. Besides, the IC50 in data set [1] was below 1000 nM.
As for `Cc1cc(Oc2ccc([N+](=O)[O-])cc2S(=O)(=O)N2CCNCC2)cc(C)c1C.Cl` [Example 1-69], the melting point stood at 248 °C. The IC50 in data set [1] is below 1000 nM.
The matching figures for `Cc1ccc(Oc2ccc([N+](=O)[O-])cc2S(=O)(=O)N2CCNCC2)cn1.Cl` [Example 1-70]: 237 °C and below 1000 nM.
Regarding `Cc1cc(O)cc(Oc2ccc([N+](=O)[O-])cc2S(=O)(=O)N2CCNCC2)c1.Cl` [Example 1-71], the melting point was 182 °C. The IC50 in data set [1] is below 1000 nM.
Molecule `Cl.O=[N+]([O-])c1ccc(Oc2ccc3c(c2)CCCC3)c(S(=O)(=O)N2CCNCC2)c1` [Example 1-72] gave a melting point of 168 °C. For the same molecule, the IC50 in data set [1] is below 1000 nM.
The matching figures for `Cl.O=[N+]([O-])c1ccc(Oc2c(F)c(F)c(F)c(F)c2F)c(S(=O)(=O)N2CCNCC2)c1` [Example 1-73]: 297 °C and below 1000 nM.
For `Cc1ccc([N+](=O)[O-])c(Oc2ccc([N+](=O)[O-])cc2S(=O)(=O)N2CCNCC2)c1.Cl` [Example 1-75], the melting point came to 215 °C. Also, the IC50 in data set [1] is below 1000 nM.
The matching figures for `O=[N+]([O-])c1ccc(Oc2cc(Cl)cc(Cl)c2)c(S(=O)(=O)NC2CCNCC2)c1` [Example 1-78]: above 300 °C and below 1000 nM.
The corresponding values for `Cc1cc(C)cc(Oc2ccc([N+](=O)[O-])cc2S(=O)(=O)N2C(C)CNCC2C)c1.Cl` (stereo not shown) [Example 1-94] are above 300 °C and below 1000 nM.
In the case of `NCC1CCN(S(=O)(=O)c2cc([N+](=O)[O-])ccc2Oc2cc(Cl)cc(Cl)c2)CC1` [Example 1-97], the melting point fell in the range of 148 to 151 °C. Moreover, the IC50 in data set [1] is below 1000 nM.
The corresponding values for `O=C(O)CCN1CCN(S(=O)(=O)c2cc([N+](=O)[O-])ccc2Oc2cc(Cl)cc(Cl)c2)CC1` [Example 1-98] are 200 to 201 °C and below 1000 nM.
The corresponding values for `Cl.N[C@@H]1CCN(S(=O)(=O)c2cc([N+](=O)[O-])ccc2Oc2cc(Cl)cc(Cl)c2)C1` [Example 1-99] are 247 to 250 °C and below 1000 nM.
The matching figures for `O=[N+]([O-])c1ccc(Sc2cc(Cl)cc(Cl)c2)c(S(=O)(=O)N2CCN(CC3CCCO3)CC2)c1` (stereo not shown) [Example 2-2]: 147 to 148 °C and below 1000 nM.
For the molecule `NCCNS(=O)(=O)c1cc([N+](=O)[O-])ccc1Sc1cc(Cl)cc(Cl)c1` [Example 2-5], the melting point was 189 °C. The IC50 in data set [1] is below 1000 nM.
`CCOC(=O)CCN1CCN(S(=O)(=O)c2cc([N+](=O)[O-])ccc2Sc2cc(Cl)cc(Cl)c2)CC1` [Example 2-6]: the melting point was in the range of 156 to 158 °C. Besides, the IC50 in data set [1] was below 1000 nM.
Molecule `NCC1CCN(S(=O)(=O)c2cc([N+](=O)[O-])ccc2Sc2cc(Cl)cc(Cl)c2)CC1` [Example 2-7] displayed a melting point of 147 to 149 °C. The IC50 in data set [1] is below 1000 nM.
Molecule `O=[N+]([O-])c1ccc(Oc2cc(Cl)cc(Cl)c2)c(S(=O)(=O)N2CCC(N3CCCC3)CC2)c1` [Example 4-1, 1-{[2-(3,5-dichlorophenoxy)-5-nitrophenyl]sulfonyl}-4-(1-pyrrolidinyl)piperidine] had a melting point of 217 to 218 °C.
On the same count and under the same terms, the same measure for `N#Cc1ccc(Oc2cc(Cl)cc(Cl)c2)c(S(=O)(=O)N2CCNCC2)c1` [Example 6-4]: 179 to 181 °C; for `N#Cc1ccc(Oc2cc(Cl)cc(Cl)c2)c(S(=O)(=O)N2CCC(N3CCCC3)CC2)c1` [Example 6-5]: 186 to 187 °C; for `N#Cc1ccc(Oc2cc(Cl)cc(Cl)c2)c(S(=O)(=O)N2C[C@H]3CCCN[C@H]3C2)c1` [Example 13-6]: 164 to 165 °C.
Molecule `N#Cc1ccc(Oc2cc(Cl)cc(Cl)c2)c(S(=O)(=O)N2CCNCC2C(=O)O)c1` (stereo not shown) [Example 13-9] displayed a melting point of 262 °C.
On the same count and under the same terms, the same measure for `Cl.N#Cc1ccc(Sc2cc(Cl)cc(Cl)c2)c(S(=O)(=O)N2CCCNCC2)c1` [Example 17-3]: 277 to 278 °C.
